Measured values reported in PubChem BioAssay (NCI).
“And” between values parts separate entries of the source, which are not always exact repeats. Equal entries are not always repeated.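 Compound exposure: 48 hours, 5 concentrations, 96-well plates. GI50 is the concentration that inhibits growth by half. TGI denotes the concentration required for complete inhibition of growth.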

Columns and labels:
Assay in all cases: growth of human tumour cells (NCI), 48 h
A498 renal = tested on: A498 renal
HCC-2998 colon = tested on: HCC-2998 colon
HCT-15 colon = tested on: HCT-15 colon
HOP-92 NSCLC = tested on: HOP-92 NSCLC
MALME-3M melanoma = tested on: MALME-3M melanoma
MDA-MB-231 breast = tested on: MDA-MB-231 breast
SNB-19 CNS = tested on: SNB-19 CNS
SNB-75 CNS = tested on: SNB-75 CNS
SR leukemia = tested on: SR leukemia
TK-10 renal = tested on: TK-10 renal

SMILES | TGI (A498 renal) | TGI (HCC-2998 colon) | TGI (HCT-15 colon) | TGI (HOP-92 NSCLC) | TGI (MALME-3M melanoma) | TGI (MDA-MB-231 breast) [µM] | TGI (SNB-19 CNS) | TGI (SNB-75 CNS) | TGI (SR leukemia) [µM] | TGI (TK-10 renal) [µM] | GI50 (A498 renal) [µM] | GI50 (HCC-2998 colon) [µM] | GI50 (HCT-15 colon) [µM] | GI50 (HOP-92 NSCLC) [µM] | GI50 (MALME-3M melanoma) [µM] | GI50 (MDA-MB-231 breast) [µM] | GI50 (SNB-19 CNS) [µM] | GI50 (SNB-75 CNS) [µM] | GI50 (SR leukemia) [µM] | GI50 (TK-10 renal) [µM]
C/C(=C\COc1ccc2ccc(=O)oc2c1)CCC(=O)C(C)(C)O | 64.2 µM | 38.4 µM | 51.1 µM | 64.5 µM | > 100 µM | > 100 | > 100 µM | > 100 µM | 47.4 | > 100 | – | – | – | – | – | – | – | – | – | –
Cc1cncc2cccc(S(=O)(=O)N3CCCNC[C@@H]3C)c12 | 17.7 µM | > 100 µM | > 100 µM | > 100 µM | > 100 µM | 74.2 | > 100 µM | 6.52 µM | > 91.2 | 84.4 | 1.61 | > 88.9 | 16.3 | 0.108 | 99.5 | 14.1 | 46.2 | 0.214 | 3.55 | 9.18
O=C(Nc1ccc(I)cc1F)c1cc(F)ccc1O | 0.634 µM | 26.4 µM | > 27.1 µM | 0.504 µM | 1.53 µM | 4.69 | > 100 µM | 2.31 µM | > 35.7 | 24.2 | 0.163 | 3.1 | 0.499 | 0.169 | 0.315 | 0.513 | 0.406 | 0.225 | 0.413 | 1.59
NC(=S)c1cn(C2OC(CO)C(O)C2O)c2ncnc(N)c12 (stereo unspecified) | 3.01 µM | 0.998 µM | – | – | 0.125 µM | > 100 | 13.7 µM | 1.84 µM | – | 0.827 | 0.535 | 0.208 | 0.191 | 0.154 | 0.0279 | 0.152 | 0.411 | 0.223 | 0.0625 | 0.185
O=C(CN1CCN(c2cc3c(cc2F)c(=O)c(C(=O)O)cn3C2CC2)CC1)Nc1ccc(C(=O)/C=C/c2ccccc2)cc1 | 7.37 µM | > 100 µM | > 100 µM | 3.82 µM | 8.87 µM | 5.13 | > 100 µM | > 100 µM | 6.1 | > 100 | 1.28 | 39.6 | 3.68 | 0.431 | 2.89 | 1.84 | 3.05 | 3.22 | 1.54 | 4.19
COC(=O)[C@@H](C)C[C@H](Cc1ccccc1)NC(=O)c1csc([C@@H](C[C@H](C(C)C)N(C)C(=O)[C@@H](NC(=O)CN(C)C)C2CC2)OC(C)=O)n1 | > 7.5 µM | > 16.5 µM | > 16.5 µM | – | > 16.5 µM | > 16.5 | > 16.5 µM | > 16.5 µM | > 16.5 | > 16.5 | 0.304 | 0.0573 | 0.135 | – | 0.0365 | 0.0858 | 0.0862 | 0.00696 | 0.00165 | 0.659
Cn1cc(C2=C(c3cn(C)c4cc(Cl)ccc34)C(=O)NC2=O)c2ccccc21 | 0.928 µM | > 11.7 µM | > 25 µM | > 23 µM | 6.99 µM | > 5.58 | > 25 µM | > 25 µM | 6.38 | > 25 | 0.0619 | 0.203 | 0.103 | 0.146 | 0.0878 | 0.125 | 0.145 | 0.0893 | 0.073 | 3.81
CCCCCCCC(=O)O[C@H]1[C@H]2[C@@H](CC1(C)C)C(=O)[C@]13O[C@H]1C(=O)[C@]1(CO1)[C@]23C | 36.1 µM and 22.8 µM | 21.3 µM and 13.2 µM | 8.26 µM and 7.9 µM | 6.03 µM and 4.81 µM | 10.9 µM and 6.34 µM | 44.5 | 44.9 µM and 45.9 µM | 29.4 µM and 53.6 µM | > 38.7 | 6.47 | 21.6 | 9.4 | – | 2.83 | – | – | – | 14.2 | – | –
CN(C)CC1CCCCCCCCCCC1=O (stereo unspecified) | – | > 10 µM | > 100 µM | > 100 µM | > 100 µM | > 10 | > 100 µM | > 100 µM | > 100 | > 100 | – | – | > 100 | > 100 | > 100 | – | > 100 | – | > 100 | > 100
Cc1cccc(Cc2cnc(NC(=O)/C=C/c3ccco3)s2)c1 | 3.93 µM | > 100 µM | > 100 µM | > 100 µM | > 100 µM | > 73.1 | > 100 µM | – | > 100 | > 100 | 0.199 | 0.135 | 0.0427 | 8.5 | 0.0484 | 0.0771 | 0.0488 | – | 0.0342 | > 100
N#CCCCCCn1c2ccccc2c2c3c(c4c5ccccc5[nH]c4c21)C(=O)N(O)C3=O | 4.94 µM | 6.06 µM | 7.82 µM | 5.24 µM | 5.01 µM | 5.32 | > 100 µM | 9.55 µM | > 100 | 7.88 | 1.72 | 1.82 | 2.15 | 2.46 | 1.96 | 1.78 | 0.959 | 0.684 | 0.434 | 2.2
Cn1cc(C2=C(c3cccc(Cl)c3)C(=O)NC2=O)c2ccccc21 | > 25 µM | > 25 µM | > 25 µM | – | > 25 µM | > 25 | > 25 µM | > 25 µM | > 25 | > 25 | 8.25 | 9.59 | > 25 | – | > 25 | > 12.6 | > 25 | 6.65 | 13.9 | 13.4
CCN1CCN(c2nc(NNC(=O)c3cccc(OC)c3)nc(N3CCN(C(c4ccccc4)c4ccccc4)CC3)n2)CC1 | 15.3 µM | 4.33 µM | – | 3.33 µM | 2.94 µM | 3.58 | 26.3 µM | 7.71 µM | 3.81 | 3.55 | 3.73 | 1.96 | – | 1.29 | 1.52 | 1.87 | 4.63 | 0.201 | 0.926 | 1.78
S=C1NC2=C(CCOc3c2ccc2ccccc32)C(c2ccc(Cl)cc2)N1 (stereo unspecified) | 68 µM | – | 86 µM | > 100 µM | 73.8 µM | 67.6 | > 100 µM | > 100 µM | > 100 | > 100 | 26.2 | – | 14.3 | 30.5 | 23.8 | 10.6 | 56.4 | 84 | 30.6 | 35.4
BrCC[N+]12CCCN1CCC2 | > 66.2 µM | 54.3 µM | 28.2 µM | 13.7 µM | 5.2 µM | 34 | > 77 µM | 32 µM | 6.8 | 27.9 | – | – | – | – | – | – | – | – | – | –
C[C@@H]1CC[C@H]2C(CN(C)CC3=C(C(F)(F)F)O[C@@H]4O[C@@]5(C)CC[C@H]6[C@H](C)CC[C@@H]3[C@@]46OO5)=C(C(F)(F)F)O[C@@H]3O[C@@]4(C)CC[C@@H]1[C@]32OO4 | > 100 µM | > 59.5 µM | > 100 µM | > 94.4 µM | > 83.9 µM | > 93.1 | > 100 µM | > 23.9 µM | > 100 | > 54.2 | 3.92 | 18.9 | 0.506 | 11.4 | 1.06 | 5.9 | 23.6 | – | 81.9 | 4.93
O=C(Nc1ccc(Oc2cccc(Cl)c2)c(Cl)c1)c1cccnc1 | 4.68 µM | 15.7 µM | > 50 µM | 22.1 µM | 32.8 µM | 46 | > 50 µM | 4.81 µM | > 50 | 40.1 | 1.52 | 5.62 | 0.343 | 2.73 | 3.16 | 6.25 | 3.15 | 1.21 | 0.395 | 3.16
O=C(c1nc2ccccc2[nH]1)C1C(c2cccc([N+](=O)[O-])c2)C2CC3CCCCC3N2[C@@]12C(=O)Nc1cc(Cl)ccc12 (stereo partly specified) | – | 3.83 µM | – | 3.64 µM | 2.96 µM | 3.17 | 6.43 µM | 3.63 µM | 9.25 | 4.91 | – | 1.88 | – | 1.37 | 1.42 | 1.49 | 2.04 | 1.18 | 2.23 | 2.12
NS(=O)(=O)c1ccc(N=Nc2cc3ccccc3c(C(=O)O)c2O)cc1 | > 86.8 µM | – | > 100 µM | > 100 µM | > 82 µM | 97 | > 100 µM | > 94.4 µM | > 84.6 | > 80.6 | – | – | – | – | – | – | – | – | – | –
Nc1ccc(Sc2ccc3c4c2cccc4c(=O)n2c4ccccc4nc32)cc1 | 57.9 µM | > 100 µM | 40 µM | – | 16.9 µM | 30 | > 100 µM | 48.1 µM | 33.1 | – | 3.67 | 10.1 | 3.34 | – | 3.12 | 5.31 | 6.17 | 3.35 | 1.6 | –
